Results reported in PubChem BioAssay AID1918943 (Molecular Pharmacology Branch, DTP, NCI, 2023).
pIC50: −log10 of the molar value. Where “and” joins values, the source holds several entries; their conditions need not be identical. Equal entries are not always repeated.

Test system: 855422-203-R-J1-PDC complex spheroid viability
Assay: Anticancer human tumor 855422-203-R-J1-PDC patient-derived bladder carcinoma cell line growth inhibition
Details: for viability, T/C: stronger effect = lower value
In short: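 Multicellular complex spheroids of tumor cells with human endothelial cells (HUVEC) and mesenchymal stem cells; the LSD1 inhibitor iadademstat was combined with standard-of-care or investigational agents. Top concentration at or near clinical Cmax, half-log dilutions; final DMSO ≤0.25%.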

[1] = curve of first compound, second compound 0.1 µM
[2] = curve of first compound, second compound 0.316 µM
[3] = curve of first compound, second compound 1 µM
[4] = curve of first compound, second compound 3.16 µM
[5] = curve of first compound, second compound 10 µM
[6] = second compound 0.1 µM, first compound 0.00316 µM
[7] = second compound 0.1 µM, first compound 0.01 µM
[8] = second compound 0.1 µM, first compound 0.0316 µM
[9] = second compound 0.1 µM, first compound 0.1 µM
[10] = second compound 0.316 µM, first compound 0.00316 µM
[11] = second compound 0.316 µM, first compound 0.01 µM
[12] = second compound 0.316 µM, first compound 0.0316 µM
[13] = second compound 0.316 µM, first compound 0.1 µM
[14] = second compound 1 µM, first compound 0.00316 µM
[15] = second compound 1 µM, first compound 0.01 µM
[16] = second compound 1 µM, first compound 0.0316 µM
[17] = second compound 1 µM, first compound 0.1 µM
[18] = second compound 3.16 µM, first compound 0.00316 µM
[19] = second compound 3.16 µM, first compound 0.01 µM
[20] = second compound 3.16 µM, first compound 0.0316 µM
[21] = second compound 3.16 µM, first compound 0.1 µM
[22] = second compound 10 µM, first compound 0.00316 µM
[23] = second compound 10 µM, first compound 0.01 µM
[24] = second compound 10 µM, first compound 0.0316 µM
[25] = second compound 10 µM, first compound 0.1 µM
[26] = second compound 0.1 µM, first compound 0.316 µM
[27] = second compound 0.1 µM, first compound 1 µM
[28] = second compound 0.1 µM, first compound 3.16 µM
[29] = second compound 0.1 µM, first compound 10 µM
[30] = second compound 0.316 µM, first compound 0.316 µM
[31] = second compound 0.316 µM, first compound 1 µM
[32] = second compound 0.316 µM, first compound 3.16 µM
[33] = second compound 0.316 µM, first compound 10 µM
[34] = second compound 1 µM, first compound 0.316 µM
[35] = second compound 1 µM, first compound 1 µM
[36] = second compound 1 µM, first compound 3.16 µM
[37] = second compound 1 µM, first compound 10 µM
[38] = second compound 3.16 µM, first compound 0.316 µM
[39] = second compound 3.16 µM, first compound 1 µM
[40] = second compound 3.16 µM, first compound 3.16 µM
[41] = second compound 3.16 µM, first compound 10 µM
[42] = second compound 10 µM, first compound 0.316 µM
[43] = second compound 10 µM, first compound 1 µM
[44] = second compound 10 µM, first compound 3.16 µM
[45] = second compound 10 µM, first compound 10 µM
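Also: drug exposure lasted 7 days starting on day 3 after seeding.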
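For viability, T/C in this document: luminescence viability as percent of DMSO vehicle wells = 100%.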

Row | SMILES | pIC50 [1] | pIC50 [2] | pIC50 [3] | pIC50 [4] | pIC50 [5] | viability, T/C [8] [%] | viability, T/C [9] [%] | viability, T/C [12] [%] | viability, T/C [13] [%] | viability, T/C [16] [%] | viability, T/C [17] [%] | viability, T/C [20] [%] | viability, T/C [21] [%] | viability, T/C [24] [%] | viability, T/C [25] [%] | viability, T/C [26] [%] | viability, T/C [27] [%] | viability, T/C [30] [%] | viability, T/C [31] [%] | viability, T/C [34] [%] | also measured
1 | CC(C)CC(NC(=O)C(Cc1ccccc1)NC(=O)c1cnccn1)B(O)O (configuration not stated) + NC1CC1c1ccc(-c2cccc(O)c2)cc1 | 9.19 | 9.20 | 9.21 | 9.22 | 9.24 | 0.03 | 0.14 | 0.02 | 0.11 | 0.02 | 0.12 | 0.03 | 0.12 | 0.13 | 0.19 |  |  |  |  |  | viability, T/C (second compound 0.1 µM, first compound 0.000316 µM): 127%; viability, T/C (second compound 0.1 µM, first compound 0.001 µM): 1.42%; viability, T/C [6]: 0.04%; viability, T/C [7]: 0.01%; viability, T/C (second compound 0.316 µM, first compound 0.000316 µM): 122%; viability, T/C (second compound 0.316 µM, first compound 0.001 µM): 1.03%; viability, T/C [10]: 0.02%; viability, T/C [11]: 0.01%; viability, T/C (second compound 1 µM, first compound 0.000316 µM): 115%; viability, T/C (second compound 1 µM, first compound 0.001 µM): 0.89%; viability, T/C [14]: 0.02%; viability, T/C [15]: 0.01%; viability, T/C (second compound 3.16 µM, first compound 0.000316 µM): 113%; viability, T/C (second compound 3.16 µM, first compound 0.001 µM): 0.68%; viability, T/C [18]: 0.03%; viability, T/C [19]: 0.02%; viability, T/C (second compound 10 µM, first compound 0.000316 µM): 105%; viability, T/C (second compound 10 µM, first compound 0.001 µM): 0.52%; viability, T/C [22]: 0.15%; viability, T/C [23]: 0.14%
2 | CC1(C)CCC(CN2CCN(c3ccc(C(=O)NS(=O)(=O)c4ccc(NCC5CCOCC5)c([N+](=O)[O-])c4)c(Oc4cnc5[nH]ccc5c4)c3)CC2)=C(c2ccc(Cl)cc2)C1 + NC1CCC(NC2CC2c2ccccc2)CC1 | 5.21 | 5.21 | 5.22 | 5.23 | 5.26 | 103 | 94.7 | 96.7 | 95.1 | 94.4 | 99.1 | 85.4 | 84.3 | 82.3 | 78.4 | 95.6 | 101 | 88.5 | 100 | 78.7 | viability, T/C [28]: 93.4%; viability, T/C [29]: 19.2%; viability, T/C [32]: 93.9%; viability, T/C [33]: 18%; viability, T/C [35]: 93.3%; viability, T/C [36]: 102%; viability, T/C [37]: 16.2%; viability, T/C [38]: 109%; viability, T/C [39]: 101%; viability, T/C [40]: 86.2%; viability, T/C [41]: 18.3%; viability, T/C [42]: 92.4%; viability, T/C [43]: 72.2%; viability, T/C [44]: 83.8%; viability, T/C [45]: 16.2%
3 | CC1COCCN1c1cc(C2(S(C)(=N)=O)CC2)nc(-c2ccnc3[nH]ccc23)n1 (configuration not stated) + NC1CCC(NC2CC2c2ccccc2)CC1 | 5.26 | 5.22 | 5.50 | 5.55 | 5.61 | 98.1 | 97.4 | 97.4 | 101 | 91.1 | 93.1 | 86.2 | 87.9 | 86 | 85.5 | 104 | 93.1 | 102 | 92.7 | 90.7 | viability, T/C [28]: 57.6%; viability, T/C [29]: 41.7%; viability, T/C [32]: 60.6%; viability, T/C [33]: 41.6%; viability, T/C [35]: 87.7%; viability, T/C [36]: 49.8%; viability, T/C [37]: 45.7%; viability, T/C [38]: 93.1%; viability, T/C [39]: 83.3%; viability, T/C [40]: 46%; viability, T/C [41]: 43.4%; viability, T/C [42]: 89.8%; viability, T/C [43]: 77.8%; viability, T/C [44]: 42%; viability, T/C [45]: 39.2%
4 | Nc1ncn(C2CC(O)C(CO)O2)c(=O)n1 (configuration not stated) + NC1CC1c1ccc(-c2cccc(O)c2)cc1 | < 6.00 | < 6.00 | < 6.00 | < 6.00 | < 6.00 | 99.7 | 106 | 96.5 | 91.6 | 89.2 | 93.5 | 88 | 86.6 | 84.2 | 82 | 93.5 | 92.4 | 90.3 | 88.7 | 91.5 | viability, T/C [6]: 104%; viability, T/C [7]: 98.2%; viability, T/C [10]: 104%; viability, T/C [11]: 95%; viability, T/C [14]: 84.9%; viability, T/C [15]: 88.6%; viability, T/C [35]: 86.7%; viability, T/C [18]: 91.6%; viability, T/C [19]: 83.3%; viability, T/C [38]: 89.5%; viability, T/C [39]: 84.2%; viability, T/C [22]: 74.7%; viability, T/C [23]: 76.8%; viability, T/C [42]: 94.8%; viability, T/C [43]: 85.2%
5 | CC[C@@]1(O)C(=O)OCc2c1cc1n(c2=O)Cc2cc3c(CN(C)C)c(O)ccc3nc2-1 |  |  |  |  |  |  |  |  |  |  |  |  |  |  |  |  |  |  |  |  | viability, T/C (compound 0.000316 µM): 90.1% and 96.8%; viability, T/C (compound 0.001 µM): 95.2% and 97.2%; viability, T/C (compound 0.00316 µM): 89.8% and 94.5%; viability, T/C (compound 0.01 µM): 35.8% and 39.8%; viability, T/C (compound 0.0316 µM): 25.6% and 21.1%; viability, T/C (compound 0.1 µM): 14.6% and 14.9%; pIC50 (curve of compound): 8.13 and 8.09
6 | CC1COCCN1c1cc(C2(S(C)(=N)=O)CC2)nc(-c2ccnc3[nH]ccc23)n1 (configuration not stated) + NC1CC1c1ccc(-c2cccc(O)c2)cc1 | 5.56 | 5.58 | 5.60 | 5.64 | 5.68 | 93.1 | 93.2 | 102 | 91.2 | 87.9 | 84.4 | 88.4 | 93.4 | 104 | 87.2 | 94.2 | 74.6 | 97.2 | 79.9 | 93.4 | viability, T/C [28]: 47.2%; viability, T/C [29]: 39.7%; viability, T/C [32]: 44.4%; viability, T/C [33]: 43.5%; viability, T/C [35]: 75%; viability, T/C [36]: 44.1%; viability, T/C [37]: 40.5%; viability, T/C [38]: 97.1%; viability, T/C [39]: 77.2%; viability, T/C [40]: 39.7%; viability, T/C [41]: 38.9%; viability, T/C [42]: 101%; viability, T/C [43]: 75.5%; viability, T/C [44]: 34.5%; viability, T/C [45]: 37.7%
